Read-outs that look alike come from different tables or passages of the source.
Assays:
[1] = system: A549 cell culture; experiment: Cell permeability testing (LC/MS/MS of cell lysates and media); type: in vitro ADME, human; settings: for Cell Permeability, 2 × 10^4 Cells/L / Cell Permeability, 4 × 10^4 Cells/L: 24 h; for cell permeability (in words): A549
Description: To test cell permeability, each compound was added to A549 cell culture at a concentration of 20 μM and incubated for 24 h. Cells were seeded in 6-well plates at a density of 2 × 10^4 and 4 × 10^4 cells per well at concentrations 1 × 10^4 and 2 × 10^4 cells/mL media for the testing of each compound, each in three replicates. After the incubation, the cell cultivation media and cell lysates were collected. After the removal of media, cells were washed with ice-cold PBS (Sigma, D1408, Irvin, UK) and lysed for 30 min in 500 µL per well ice-cold RIPA buffer (Sigma, R0278, St Louis, MO, USA). Samples were stored at −80 °C until analysis.
The quantitative determination of tested compounds in cell lysates and culture media was performed on a Waters MICROMASS QUATTRO microTM tandem mass spectrometer combined with Acquity UPLC system. Acquity UPLC BEH C8 (2.1 × 50 mm × 1.7 μm) column was used at a flow rate of 0.25 mL/min. The column oven was set at 30 °C, and the sample injection volume was 5 μL. The mobile phase consisted of a combination of A (0.1% formic acid in water) and B (acetonitrile). The gradient elution program from 5% B to 98% B in 5 min was applied for analysis. Tandem mass spectrometer in positive electrospray mode was used for quantification. The TargetLynx software was applied to process LC/MS/MS data. Samples for LC/MS/MS analysis were prepared as follows: 200 μL of acetonitrile/methanol mixture (3:1 v/v) was add to 200 μL of each cell lysate and culture media sample. Then, the samples were centrifuged (10,000 rpm, 10 min), and the supernatants (300 μL) were removed from each sample and placed in vials for LC/MS/MS analysis. Calibration curves for all analytes were produced by analysis of standard solutions over a concentration range of 0.2 to 20 μM.

[2] = Cytotoxicity, neutral red uptake, A549; type: cell-based; settings: human
Description: (§1) A549 human non-small cell lung cancer cell line, HepG2 hepatocarcinoma cells, and BALB/c 3T3 clone A31 murine fibroblast cell line for the study were obtained from ATCC (American Type Culture Collection, Manassas, VA, USA). Cells were propagated in DMEM medium (Sigma, D6046, Irvin, UK) supplemented with 1% penicillin (100 U/mL)–streptomycin (100 μg/mL) and 10% foetal bovine serum (Sigma, F7524, St Louis, MO, USA) in case of A549 and HepG2 or 10% calf serum (Sigma, C8056, St Louis, MO, USA) in case of BALB/c 3T3. All cultivations were performed in a humidified 5% CO2 atmosphere at 37 °C.
(§2) The cytotoxicity of the compounds was tested in A549, HepG2, and BALB/c3T3 cell lines by neutral red (NR) uptake assay. A549 and BALB/c3T3 cells were seeded in 96-well plates at a density of 8 × 10^3 cells per well, HepG2 at density 1.2 × 10^4 cells per well. After 24 h incubation, test compounds in a concentration range of 0.8 to 200 μM were added. Cultivation in the presence of test compounds was done for 48 h. Afterwards, the plates were washed with phosphate-buffered saline (PBS) (Sigma, D8537, Irvin, UK), and 25 µg/mL NR solution (Sigma, N2889, Irvin, UK) was added. In case of BALB/c 3T3 cells, NR was diluted in 5% foetal calf serum containing media, while for A549 and HepG2 cells, it was diluted in 5% foetal bovine serum containing media. After 3 h incubation, the plate was washed with PBS, and the NR taken up by viable cells was extracted using desorbing fixative (50% ethanol/1% acetic acid/49% water). Absorbance at 540 nm was measured using a Tecan M200 Infinite Pro microplate reader. Cytotoxicity was expressed as a concentration-dependent reduction of the uptake of NR, compared to the untreated controls, and the IC50 value for each compound was calculated.

[3] = Cytotoxicity, neutral red uptake, HepG2; type: cell-based; settings: human
Description: as §1, §2

[4] = Cytotoxicity, neutral red uptake, 3T3; type: cell-based, murine; settings: mouse
Description: as §1, §2

[5] = molecular target: SARS-CoV-2 nsp16/nsp10 (Severe acute respiratory syndrome coronavirus 2, UniProt P0DTD1); experiment: biochemical; settings: for Ligand Efficiency (LE) nsp16: estimated from IC50 values; for inhibition at 100 µM: read-out: Percent inhibition at 100 μM, nsp16
[6] = molecular target: SARS-CoV-2 nsp14 (Severe acute respiratory syndrome coronavirus 2, UniProt P0DTD1); experiment: biochemical; settings: for Ligand Efficiency (LE) nsp14: estimated from IC50 values; for inhibition at 100 µM: read-out: Percent inhibition at 100 μM, nsp14
[7] = molecular target: T1, human Glycine N-Methyltransferase (GNMT) (Homo sapiens, UniProt Q14749); experiment: HTRF methyltransferase selectivity assay, human GNMT; type: biochemical; settings: for Ligand Efficiency (LE) Human (hMtase): estimated from IC50 values; for inhibition at 100 µM: read-out: Percent inhibition at 100 μM, Human
T1 construct: purchased MyBioSource MBS636160
T1 sequence (Q14749 1-295): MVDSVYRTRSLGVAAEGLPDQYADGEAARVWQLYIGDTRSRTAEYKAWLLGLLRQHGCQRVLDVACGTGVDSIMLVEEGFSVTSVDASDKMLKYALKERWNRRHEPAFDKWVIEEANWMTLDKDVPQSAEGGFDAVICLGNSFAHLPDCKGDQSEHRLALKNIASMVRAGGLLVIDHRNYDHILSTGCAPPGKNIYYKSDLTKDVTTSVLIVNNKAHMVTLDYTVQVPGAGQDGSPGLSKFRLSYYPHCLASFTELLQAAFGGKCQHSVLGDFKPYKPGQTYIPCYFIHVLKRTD

[8] = system: 3T3, A549, and HepG2 cell lines; experiment: Cytotoxicity, summary statements over the three cell lines; type: cell-based; settings: 3T3, A549, HepG2
Description: as §2

[9] = A549, compound 20 μM, LOQ 0.2 μM or 1%
[10] = 48 h, neutral red uptake, read-out: Cytotoxicity (CC50) A549
[11] = 48 h, neutral red uptake, read-out: Cytotoxicity (CC50) HepG2
[12] = 48 h, neutral red uptake, read-out: Cytotoxicity (CC50) 3T3
[13] = HTRF, nsp16/nsp10, SAM 10 µM, m7GpppA-RNA, read-out: IC50 nsp16
[14] = HTRF, SAM 10 µM, GpppG 4 µM, read-out: IC50 nsp14
[15] = HTRF, SAM 10 µM, glycine 5 mM, read-out: IC50 Human (hMtase, human glycine N-methyltransferase)

Compound	Cell Permeability, 2 × 10^4 Cells/L [1, 9]	Cell Permeability, 4 × 10^4 Cells/L [1, 9]	CC50 at 48 h [2, 10]	CC50 at 48 h [3, 11]	CC50 at 48 h [4, 12]	Ligand Efficiency (LE) nsp16 [5]	IC50 [6, 14]	Ligand Efficiency (LE) nsp14 [6]	Cell Permeability, 2 × 10^4 Cells/L ([1]; human, 20 μM)	Cell Permeability, 4 × 10^4 Cells/L ([1]; human, 20 μM)	IC50 [7, 15]	Ligand Efficiency (LE) Human (hMtase) [7]	CC50 at 48 h [2]	CC50 at 48 h [3]	CC50 at 48 h [4]	IC50 [5]	inhibition at 100 µM [5]	IC50 [6]	inhibition at 100 µM [6]	cell permeability (in words) [1]	further results
Nc1ncnc2c1ncn2[C@@H]1O[C@H](C[C@@H](N)CC[C@H](N)C(=O)O)[C@@H](O)[C@H]1O [Sinefungin, reference compound]	<LOD	<LOD	72.9 µM	> 100 µM	99.2 µM	–	–	–	–	–	–	–	–	–	–	–	–	–	–	–	–
Cc1ccc(S(=O)(=O)OC[C@H]2O[C@@H](n3cnc4c(N)ncnc43)[C@H](O)[C@@H]2O)cc1 [ZINC3861767]	–	–	–	–	–	0.28 kcal/mol	1.5 µM	0.27 kcal/mol	2.2%	0.5%	2.8 µM	0.26 kcal/mol	> 200 µM	> 200 µM	> 200 µM	–	–	–	–	–	IC50 [5, 13]: 1.14 µM
CSC[C@H]1O[C@@H](n2cnc3c(N)ncnc32)[C@H](O)[C@@H]1O [ZINC4228245]	–	–	–	–	–	0.41 kcal/mol	1.4 µM	0.40 kcal/mol	0.7%	0.8%	1.8 µM	0.39 kcal/mol	> 200 µM	> 200 µM	> 200 µM	1.02 µM	–	–	–	–	–
O=C(CCCn1cncn1)N1CCCC(c2nc3ccccc3s2)C1 (stereo not shown) [ZINC23398144]	0.7%	0.6%	> 100 µM	> 100 µM	> 100 µM	0.21 kcal/mol	–	0.23 kcal/mol	–	–	–	0.20 kcal/mol	–	–	–	197 ± 9 µM	39 ± 7%	77 ± 3 µM	57 ± 8%	low level of cell permeability	cytotoxicity (in words) [8]: no measurable cytotoxicity; IC50 [7]: 315 ± 5 µM; inhibition at 100 µM [7]: 21 ± 2%
O=C(Cn1c(=O)[nH]c2c(-c3ccccc3)c[nH]c2c1=O)NCc1cccnc1 [ZINC33037945]	17.9%	30.8%	> 100 µM	> 100 µM	> 100 µM	–	–	0.19 kcal/mol	–	–	–	0.19 kcal/mol	–	–	–	–	-8 ± 6%	106 ± 5 µM	56 ± 5%	good cell permeability	cytotoxicity (in words) [8]: no measurable cytotoxicity; IC50 nsp16 ([5]; HTRF, nsp16/nsp10, SAM 10 µM, m7GpppA-RNA): inactive; IC50 [7]: 125 ± 6 µM; inhibition at 100 µM [7]: 53 ± 8%
O=C(Cc1csc(SCC(=O)c2ccccc2)n1)Nc1cccc2nsnc12 [ZINC38661771]	<LOQ	<LOQ	97 µM	93.8 µM	116 µM	0.21 kcal/mol	–	0.19 kcal/mol	–	–	–	0.21 kcal/mol	–	–	–	51 ± 2 µM	69 ± 8%	118 ± 4 µM	58 ± 7%	low level of cell permeability	concentration at which cytotoxicity was shown [8]: ≈ 100 μM; IC50 [7]: 58 ± 3 µM; inhibition at 100 µM [7]: 63 ± 5%
CCNC(=O)NCCSC[C@H]1O[C@@H](n2cnc3c(N)ncnc32)[C@H](O)[C@@H]1O [ZINC473112262]	–	–	–	–	–	0.28 kcal/mol	3.1 µM	0.28 kcal/mol	0.3%	0.3%	5.8 µM	0.26 kcal/mol	> 100 µM	> 100 µM	> 100 µM	–	–	–	–	–	IC50 [5, 13]: 2.46 µM

From PMC8705538, “Discovery of SARS-CoV-2 Nsp14 and Nsp16 Methyltransferase Inhibitors by High-Throughput Virtual Screening” (Pharmaceuticals, 2021)
